Source: US9205070B2, “Chelation suppository for improved drug delivery” (APPLIED BIORESEARCH, INC., priority 2013, dated 2015)
Read-outs that look alike come from different tables or passages of the source.

Key:
[1] = rat
Text: The conclusive measure of bioavailability is to measure the drug blood levels (or levels in some other body fluid) after administration to human test subjects.
See Rabau M Y, Baratz M, Rozen P, “Na2 ethylenediaminetetraacetic acid retention enema in dogs. Biochemical and histological response”.

[2] = aqueous composition containing MBK, pH 7.0 and pH 9.6, after 5 hours
Experimental: Cells in the digestive track, such as CACO-2 cells are typically used to model absorption in the small intestine. CACO-2 cells, developed by the Sloan-Kettering Institute from human epithelial colorectal adenocarcinoma cells, are widely used to predict drug absorption. […] permeability assay (PAMPA) uses an artificial cell membrane to model drug permeability. In either test, the drug is dissolved in an aqueous solution mimicking the target gastric fluid. The fluid is contacted with the membrane, and the passage of the drug through the membrane over a period of time is used to assess permeability.
PAMPA measures how quickly the drug can exit a water-solvated environment and pass through a cell membrane. Since most drugs are hydrophobic, it is expected that there will be significant absorption by the cells lining the digestive tract.

[3] = dogs, aqueous solution, rectal; cited from earlier work
[4] = Group C, rectal suppository with MBK excipient, mean

Row | SMILES | AUC ([1]; Group B, intravenous, mean) | AUC Inf ([1]; Group B, intravenous, mean) | Cmax ([1]; Group B, intravenous, mean) | Halflife ([1]; Group B, intravenous, mean) | Tmax ([1]; Group B, intravenous, mean) | AUC [1, 4] | AUC Inf [1, 4] | Cmax [1, 4] | drug absorbed ([1]; suppository with MBK as the excipient, within eight hours) | passage of drug through the artificial cell membrane [2] | absorption [3]
1 | O=C([O-])CN(CCN(CC(=O)[O-])CC(=O)[O-])CC(=O)[O-].[Ca+2].[Na+].[Na+] [CaNa2EDTA, calcium disodium ethylenediaminetetraacetate] | 1860 ng·h/mL | 1910 ng·h/mL | 2070 ng/mL | 90 min | 4.98 min | 105800 ng·h/mL | 307300 ng·h/mL | 30600 ng/mL | over 36.3% | no drug was found to have passed through the artificial cell membrane | –
2 | O=C(O)CN(CCN(CC(=O)O)CC(=O)O)CC(=O)O [EDTA] | – | – | – | – | – | – | – | – | – | – | ~13%
